Laboratory results: patent publication US11672786B2, “Methods of treating diseases associated with repeat instability” (The Hospital for Sick Children, priority 2016, dated 2023)

Tests used:
HT1080-(CAG)850 cells = assay: cellular distribution by confocal microscopy; format: cell-based, human; settings: 50-μM NBD-labeled NA, 48 hr
Experimental: Scale bar represents 20 μm. […] The cell viability was estimated with WST-1 assays. Values represent the means of three independent measures±SD. […] Error bars indicate the SD of triplicate experiments. […] The dashed line indicates the peak CAG size. Allele lengths are grouped in bins spanning 10 repeats. More than 230 alleles were sized per group.
HT1080-(CAG)850 cells were incubated with 50-μM NBD-labeled NA for 48 hr and Cell Light Plasma Membrane-RFP, BacMam 2.0 (Life Technologies, Carlsbad, Calif.), then fixed for 15 min at RT with 4% paraformaldehyde and washed 2 times for 10 min in phosphate buffered saline (PBS). Cells were mounted with Vectashield hard-set mounting media that contains DAPI (Vector Laboratories, Burlingame, Calif.). Fluorescence images were obtained using Olympus FV1000D confocal laser scanning microscope (Olympus, Tokyo, Japan).

CAG expansions = settings: by unknown processes; cited from earlier work

| SMILES | cellular distribution (HT1080-(CAG)850 cells) | effect on CAG expansions (CAG expansions) |
| --- | --- | --- |
| Cc1ccc2ccc(NC(=O)CCN(CCCNC(=O)CCCNC(=O)CCCCCNc3ccc([N+](=O)[O-])c4nonc34)CCC(=O)NCc3ccc4ccc(=O)[nH]c4n3)nc2n1 [NBD-labeled NA, N-(4-((3-((3-((7-methyl-1,8-naphthyridin-2-yl)amino)-3-oxopropyl)(3-oxo-3-(((7-oxo-7,8-dihydro-1,8-naphthyridin-2-yl)methyl)amino)propyl)amino)propyl)amino)-4-oxobutyl)-6-((7-nitrobenzo[c][1,2,5]oxadiazol-4-yl)amino)hexanamide] | distributed throughout the nuclei and cytoplasm |  |
| CC(C)C[C@@H](/C=C/[C@H](Cc1ccccc1)C(=O)N1CCC[C@H]1C(=O)N[C@H](C(=O)N[C@@H](CCCNC(=O)OCc1ccccc1)C(=O)NC1CC(C)(C)N([O])C(C)(C)C1)C(C)C)NC(=O)OC(C)(C)C [XJB-5-131] |  | mildly suppress CAG expansions rather than induce contractions |
